From US10100030B2 (Kissei Pharmaceutical Co., Ltd., priority 2013, dated 2018)
Where two headings read alike, the source gives them in different places.

Experiments:
[1] = Measurement of drug concentrations in the brain after foot-tapping test; assay type: in vivo; conditions: male; 0.3 mg/kg iv, after foot-tapping was finished, gerbil brain; read-out: Conc. (drug concentration in the brain)
Method: (§1) A male gerbil (Japan SLC) was anesthetized with isoflurane, and 0.3 mg/kg of a test compound was administered from the jugular vein. After four hours, GR73632 (5 pmol/5 μl), which is an NK1 receptor agonist, was administered into the cerebral ventricle at the part 1 mm lateral to and 4.5 mm below the bregma in the head, under anesthesia with isoflurane. After the administration, the gerbil was moved to an observation cage, and the foot-tapping period during five minutes after the recovery of the righting reflex was measured. The foot-tapping inhibition rate (%) of each test compound was calculated by the following equation. Foot-tapping inhibition rate (%)={1−(Foot-tapping period when test compound was administered)/(Foot-tapping period when solvent was administered)}×100 (2) Measurement of Drug Concentrations
After foot-tapping was finished, laparotomy was performed immediately under anesthesia with ether, and a blood sample was taken from the abdominal vena cava. At the same time, the brain was extracted. Through a quantitative analysis using liquid chromatography-mass spectrometry (LC/MS), the concentrations of the test compound in the plasma and the brain were measured.
(§2) In the table, Ex. No. means the Example number. Inhibition (%) is the foot-tapping inhibition rate, and Conc. (nM) is the drug concentration in the brain.

human NK1 receptor [2] = target: T1, human NK1 receptor (Homo sapiens (Human), UniProt P25103); assay: Inhibitory effect on human NK1 receptor (substance P-induced increase in intracellular calcium concentration); assay type: cell-based; conditions: HEK-293T; substance P 1 μM, compound 0.1 μM; human NK1 receptor-expressing 293T cells; read-out: SPRR (Substance P-Response Remaining)
Method: Inhibitory Effect on Human NK1 Receptor
(1) Preparation of Human NK1 Receptor-expressing Cells
Human NK1 receptor-expressing cells were prepared by the same methods as those described in 2-3 and 2-4 of Test Example 1.
(2) Study on Inhibitory Effect on Increase in Intracellular Calcium Concentration
The human NK1 receptor-expressing cells were washed with 300 μL/well of a washing solution (20 mM HEPES/Hank's Balanced Salt Solution (HBSS) […]). A fluorescent calcium indicator (Fluo-4 Direct Calcium Assay Kit, Life Technologies, containing 0.42 mM probenecid and 0.1% bovine serum albumin, prepared according to the protocol of the product) was added to the wells at 150 μL/well, and the plate was incubated at 37° C. for 30 minutes in an incubator. Then, DMSO solutions of a test compound, which were prepared at an 80-time higher concentration using 100% dimethyl sulfoxide (DMSO), were added to the wells at 2.5 μL/well (final concentrations of 0.1, 1 and 10 μM), and the solutions were mixed. Then, the plate was further incubated at 37° C. for 30 minutes in an incubator. After 30 minutes, the intracellular calcium concentrations were measured immediately.
The intracellular calcium concentrations were each measured as a fluorescent signal using FDSS (registered trademark) 7000 (Hamamatsu Photonics). A substance P (Peptide Institute, Inc.) solution which was prepared at 0.4 μM or 4 μM using an assay buffer (20 mM HEPES/Hank's Balanced Salt Solution (HBSS) pH 7.3, containing 0.1% bovine serum albumin) was added automatically to each well at 50 μL/well (final concentration of 0.1 or 1 μM) 10 seconds after starting reading, and the fluorescent signal was measured up to 120 seconds.
The intracellular calcium concentration (%) of the cells to which a test compound was added was calculated by the equation below, where the fluorescent signal of the group to which the vehicle (DMSO) was added was regarded as 100%, and the fluorescent signal before the addition of substance P was regarded as 0%. Intracellular calcium concentration(%)=(Fluorescent signal of test compound addition group)/(Fluorescent signal of vehicle addition group)×100
The intracellular calcium concentration (%) calculated was regarded as the remaining agonist activity of substance P (Substance P-Response Remaining: SPRR). In the table, Ex. No. means the Example number. SPRR (%) is the value obtained when the concentration of substance P was 1 μM and the concentration of the compound was 0.1 μM.

CYP3A4 = CYP3A4 (Homo sapiens (Human), UniProt P08684)
Method: Enzyme reaction was performed by incubating in a potassium phosphate buffer solution (pH 7.4) containing 1 nM to 20 μM test compound, 3.2 mM magnesium chloride, 0.2 pmol human CYP3A4 (BD Biosciences), 0.5 mM reduced nicotinamide adenine dinucleotide phosphate (NADPH) and 3 μM Luciferin-IPA (Promega) at 37° C. for 10 minutes. The volume of the reaction solution was 50 μL/well. The 30-minute pre-incubation group was incubated at 37° C. for 30 minutes before adding the substrate, the Luciferin-IPA solution (12.5 μL/well). At the end of the enzyme reaction, 50 μL/well of a Luciferin detection reagent (Promega) was added to the wells, and the plate was left at room temperature for 20 minutes. Then, the emission intensities were measured with Infinite M1000 (TECAN). The enzyme activities (%) relative to the value of the group to which the test compound was not added were calculated.

NK1 receptor = NK1 receptor (Meriones unguiculatus (Mongolian jird) (Gerbillus unguiculatus), UniProt Q5DUB1); assay: Effect on GR73632-induced foot-tapping; assay type: in vivo; conditions: 0.3 mg/kg from the jugular vein, GR73632 after four hours, male gerbil
Method: (1) Effect on Foot-tapping
as §1, §2

human NK1 receptor [3] = target: T1, human NK1 receptor; assay: Affinity for human NK1 receptor (125I-substance P receptor binding test); conditions: membrane fraction of human NK1 receptor-expressing 293T cells; read-out: IC50 (concentration required for 50% inhibition of 125I-substance P binding)
Method: Affinity for Human NK1 Receptor
(3) Measurement of Binding Affinity to Human NK1 Receptor
(3-1) Preparation of Membrane Fraction from Human NK1 Receptor-expressing Cells
Human NK1 receptor-expressing cells were prepared in a 175 cm^2 culture flask (Nippon Becton Dickinson). The formation of a complex of the human NK1 receptor expression plasmid and Lipofectamine 2000 was performed by calculating the culture area ratio and increasing the scale of the method described in the above 2-4 by the ratio. The human NK1 receptor-expressing cells were collected in a buffer solution for the membrane fraction preparation (50 mM Tris (Wako Pure Chemical). 120 mM sodium chloride (Wako Pure Chemical Industries), 5 mM potassium chloride (Wako Pure Chemical Industries), 1 mM ethylenediaminetetraacetic acid (Sigma), 0.002 mg/mL chymostatin (Peptide Institute), 0.04 mg/ bacitracin (Wako Pure Chemical Industries), 0.005 mg/mL phosphoramidon (Peptide Institute) and 0.5 mM phenylmethylsulfonyl fluoride (Wako Pure Chemical Industries), pH7.4) and centrifuged at 1,880 g for 10 minutes, and the cell sediment was suspended in the buffer solution for the membrane fraction preparation. After freezing and thawing the cells once, the cells were homogenized using a Dounce-type homogenizer (cooled on ice, 1000 rpm, 20 times). The homogenized cell suspension was centrifuged at 20,000 rpm for 10 minutes, and the supernatant was removed to obtain cell sediment. The cell sediment was suspended again in the buffer solution for the membrane fraction preparation and homogenized using a Dounce-type homogenizer (cooled on ice, 1000 rpm, 30 times). The cell suspension was centrifuged at 20,000 rpm for 10 minutes, and the supernatant was removed to obtain cell sediment. The same homogenization and centrifugation were repeated again, and final cell sediment was obtained. The final cell sediment was suspended in a buffer solution for the receptor binding test (50 mM Tris (Wako Pure Chemical Industries), 3 mM manganese chloride (Wako Pure Chemical Industries), 0.002 mg/mL chymostatin (Peptide Institute), 0.04 mg/bacitracin (Wako Pure Chemical Industries) and 0.02% bovine serum albumin (Sigma), pH 7.4), and the protein concentration was measured using BCA Protein Assay Kit (Pierce).
(3-2) Receptor Binding Test
The buffer solution for the receptor binding test was dispensed to the wells of a 96-well assay plate (Greiner) at 22.5 μL/well. DMSO solutions of a test compound, which were prepared at an 80-time higher concentration using 100% dimethyl sulfoxide (DMSO), were added to the wells at 2.5 μL/well (final concentrations of 1 nM to 100 nM), and the solutions were mixed. As a radiolabeled ligand, ^125I-substance P (Substance P, [^125I]Tyr^8-, PerkinElmer) was used. ^125I-substance P was diluted with the buffer solution for the receptor binding test to a concentration resulting in […] and added to the 96-well assay plate, and the solutions were mixed. The membrane fraction prepared from the human NK1 receptor-expressing cells was diluted with the buffer solution for the receptor binding test to a concentration resulting in 8 to 10 μg/well, suspended until the suspension became in such a homogenous state that the suspension could flow through as 27G injection needle smoothly and then added to the 96-well assay plate at 150 μL/well. Then, the plate was incubated at room temperature for 60 minutes while shaking the plate. The reaction solutions were suction-filtered. through a multiscreen 96-well filter plate (Millipore) which had been pre-treated with 0.3% polyethyleneimine, and the reaction was terminated by washing with a washing solution (50 mM Tris and 0.02% bovine serum albumin, pH 7.4) four times. The bottom of the microplate was dried at 60° C., and then 100 μL/well of MicroScint 20 (PerkinElmer) was dispensed to the wells. The top of the plate was sealed with TopSeal A (PerkinElmer), and the plate was shaken for 5 to 10 minutes. […]

T1 sequence (P25103 whole entry): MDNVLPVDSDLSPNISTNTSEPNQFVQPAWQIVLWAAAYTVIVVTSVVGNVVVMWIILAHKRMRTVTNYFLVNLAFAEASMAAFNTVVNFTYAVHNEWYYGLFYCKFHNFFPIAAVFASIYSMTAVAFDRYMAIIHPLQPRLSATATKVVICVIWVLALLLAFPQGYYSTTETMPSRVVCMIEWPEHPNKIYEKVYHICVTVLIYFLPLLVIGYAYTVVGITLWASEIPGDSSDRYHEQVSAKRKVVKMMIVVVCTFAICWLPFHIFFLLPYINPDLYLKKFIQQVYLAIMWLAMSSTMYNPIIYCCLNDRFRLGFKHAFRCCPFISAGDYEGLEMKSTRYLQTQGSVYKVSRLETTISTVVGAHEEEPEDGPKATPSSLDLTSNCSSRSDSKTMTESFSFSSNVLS
CYP3A4, sequence (P08684 whole entry): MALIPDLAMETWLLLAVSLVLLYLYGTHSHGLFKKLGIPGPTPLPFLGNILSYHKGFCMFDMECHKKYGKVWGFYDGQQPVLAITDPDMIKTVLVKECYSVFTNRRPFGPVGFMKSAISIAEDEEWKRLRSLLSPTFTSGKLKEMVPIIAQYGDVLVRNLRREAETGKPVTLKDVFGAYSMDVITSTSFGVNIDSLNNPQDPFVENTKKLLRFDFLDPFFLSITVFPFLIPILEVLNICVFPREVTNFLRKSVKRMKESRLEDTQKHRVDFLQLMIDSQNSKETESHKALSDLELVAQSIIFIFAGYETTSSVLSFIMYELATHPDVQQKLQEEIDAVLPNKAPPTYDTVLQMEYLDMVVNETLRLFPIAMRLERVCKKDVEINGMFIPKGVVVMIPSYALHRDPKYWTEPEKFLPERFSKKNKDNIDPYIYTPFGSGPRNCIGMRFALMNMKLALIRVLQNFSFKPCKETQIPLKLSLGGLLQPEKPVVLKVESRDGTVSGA
NK1 receptor, sequence (Q5DUB1 whole entry): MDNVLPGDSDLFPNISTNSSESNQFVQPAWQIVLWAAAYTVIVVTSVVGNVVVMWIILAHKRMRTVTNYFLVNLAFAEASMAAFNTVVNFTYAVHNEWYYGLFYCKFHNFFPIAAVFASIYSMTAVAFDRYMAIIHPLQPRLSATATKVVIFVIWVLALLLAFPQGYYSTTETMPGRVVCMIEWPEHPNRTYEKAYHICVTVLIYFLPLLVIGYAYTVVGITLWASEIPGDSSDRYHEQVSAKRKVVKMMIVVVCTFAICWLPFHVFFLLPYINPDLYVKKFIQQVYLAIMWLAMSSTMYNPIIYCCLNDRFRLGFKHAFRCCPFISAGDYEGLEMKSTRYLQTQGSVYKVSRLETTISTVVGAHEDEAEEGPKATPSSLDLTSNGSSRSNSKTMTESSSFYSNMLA

Cc1cc(F)ccc1-c1cc(N2CCC(C(C)C(=O)O)CC2)nc(C#N)c1N(C)C(=O)C(C)(C)c1cc(C(F)(F)F)cc(C(F)(F)F)c1 (stereo not shown) [Example 8]
concentration at 4 h [1]: 0.213 µM
remaining activity at 0.1 µM (human NK1 receptor [2]): 69%
IC50 (CYP3A4; human, 10 min, pH 7.4): 1.4 µM
Inhibition (foot-tapping inhibition rate) (NK1 receptor): 100%
IC50 (human NK1 receptor [3]): 0.00225 µM

Cc1cc(F)ccc1-c1cc(N2CCC([C@@H](C)C(=O)O)CC2)ncc1N(C)C(=O)C(C)(C)c1cc(C(F)(F)F)cc(C(F)(F)F)c1 [Example 12, (R)-2-[5′-{[2-(3,5-Bistrifluoromethylphenyl)-2-methylpropionyl]methylaminol}-4′-(4-fluoro-2-methylphenyl)-3,4,5,6-tetrahydro-2H-[1,2]bipyridinyl-4-yl]propionic acid]
IC50 (CYP3A4): 4.6 µM
IC50 (human NK1 receptor [3]): 0.00744 µM
